# Experimental data published in article PMC7466159, “Anti-Metastasis Fascin Inhibitors Decrease the Growth of Specific Subtypes of Cancers” (Cancers, 2020).
# Where two headings read alike, the source gives them in different places.
# Columns and labels:
# [1] = tested on: NCI-H660 human neuroendocrine prostate cancer cells; experiment: Boyden chamber cell migration assay; assay type: cell-based; settings: about twenty hours, 10% serum, read-out: IC50, tumor cell migration
# Description: Cells were stained with crystal violet staining solution, and cells on the upper side of the insert were removed with a cotton swab.
# in vivo = settings: mouse, plasma
# Description: The PK parameters of NP-G2-044 were assessed following a single intravenous (IV) and single oral (PO) gavage dose administration to mice. Blood samples were collected pre-dose, and 3, 10, 30 min, 1, 1.5, 3, 6, 9, 24, 32, or 48 h after dosing. The plasma samples were then extracted and the concentrations of NP-G2-044 were determined by LC-MS/MS.
# The concentrations of NP-G2-044 in plasma were determined using high performance liquid chromatography with tandem mass spectrometry (LC-MS/MS). All blood samples were transferred into a commercial tube containing potassium (K2) EDTA (ethylene diaminetetraacetic acid) and were processed for plasma. Samples were centrifuged (3000× g for 10 min at 2 to 8 °C) within one hour of collection. The assays used a Sciex API 4000 detector and nifedipine as an internal standard. The calibration ranges for NP-G2-044 were from 5.00 to 5000 ng/mL. The plasma concentration of NP-G2-044 in mice was subjected to a non-compartmental pharmacokinetic analysis by using the Phoenix WinNonlin software (version 6.3, Pharsight, Mountain View, CA, USA). The nominal dose levels and nominal sampling times were used in the calculation of all pharmacokinetic parameters. The linear/log trapezoidal rule was applied in obtaining the PK parameters.
# [2] = tested on: 4T1 mouse triple-negative breast cancer cells; settings: for inhibition of lung metastasis / IC50, metastasized 4T1 cells in the lungs: BALB/c mice, oral; for IC50, metastasized 4T1 cells in the lungs: Day 7 to Day 27
# Description: In the second orthotopic spontaneous tumor metastasis mouse model, 4T1 mouse triple-negative breast cancer cells were injected into the mammary gland of BALB/c mice, and then the metastasis to the lung was monitored (Figure 2D,E). The 4T1 mouse tumor closely mimics human breast cancer in its anatomical site, immunogenicity, growth characteristics, and metastatic properties. From the mammary gland, the 4T1 tumor spontaneously metastasizes to a variety of target organs including lung, bone, brain, and liver. Seven days after the implantation of 4T1 tumor cells, we orally administered the mice with different concentrations of NP-G2-044 either once a day or twice a day for six days a week. After 28 days, the mice were sacrificed and examined for metastasis in the lungs.
# Female BALB/c mice (6- to 8-week old) were purchased from Charles River Labs. The 4T1 tumor cells (1 × 10^5) were injected subcutaneously into the abdominal mammary gland area of mice using 0.1 mL of a single-cell suspension in PBS-matrigel (v/v, 1:1) on Day 0 as previously described. […] On Day 28, the mice were sacrificed. […] The numbers of metastatic 4T1 cells in lungs were determined by a clonogenic assay. In brief, the lungs were removed from each mouse, finely minced and digested in 5 mL of an enzyme cocktail containing 1 × PBS and 1 mg/mL collagenase type IV for 2 h at 37 ℃ on a platform rocker. After incubation, samples were filtered through 70-µm nylon cell strainers and washed twice with PBS. The resulting cells were suspended and plated with a series of dilutions in 10-cm tissue culture dishes in DMEM medium containing 60 µM thioguanine for clonogenic growth. As 4T1 tumor cells are resistant to 6-thioguanine, the metastasized tumor cells formed foci after 14 days, at which time they were fixed with 4% paraformaldehyde and stained with crystal violet staining solution for counting. For the experiments in Figure 2F,G, 4T1 tumor cells (1 × 10^5) suspended in PBS-matrigel (v/v, 1:1) were injected subcutaneously into the abdominal mammary gland area of mice on day 0. Starting on Day 3, NP-G2-044 was given to mice once every day by oral gavage at 100 mg kg^−1 per mouse. A vehicle solvent was given to the control group of mice once every day by gavage. Starting on Day 7, paclitaxel was given to mice twice a week by an intraperitoneal injection at 20 mg kg^−1 per mouse for two weeks. Primary tumors were removed on Day 14. All mice were killed for a clonogenic assay on Day 32.
# U2932 cells = experiment: Soft-agar colony formation assay, U2932; assay type: cell-based; settings: 14 days, dosage-dependent
# Description: A total of 1 × or 2 ×10^4 cells were suspended in 0.5 mL of 0.3% low melting point agar (Merck KGaA, Darmstadt, Germany) in RPMI-1640 or DMEM containing 10% FBS and control solvent or the inhibitors. This suspension was overlaid on pre-solidified with 0.6% agar in the same medium in 24-well plates as previously described. Normal growth medium containing control solvent or the inhibitors was gently layered over the cultures every 4 days for 14 days. The colonies were stained with 0.1% crystal violet for 1 h at room temperature and counted under a microscope.
# [3] = tested on: KARPAS 299 lymphoma cells; experiment: Cell growth sensitivity, KARPAS 299; assay type: cell-based
structure (smiles),measurement,setting,value
Cc1occc1C(=O)Nc1nn(Cc2ccc(C(F)(F)F)cc2)c2ccccc12 [NP-G2-044],IC50,[1],3 to 5 µM
same,AUC(0-inf),"in vivo; iv, 20 mg/kg",7290 ± 1850 ng·h/mL
same,AUC(0-t),"in vivo; iv, 20 mg/kg",7150 ± 1750 ng·h/mL
same,C0,"in vivo; iv, 20 mg/kg",11300 ± 3840 ng/mL
same,MRT inf,"in vivo; iv, 20 mg/kg",3.34 ± 0.68 h
same,MRT last,"in vivo; iv, 20 mg/kg",2.81 ± 0.36 h
same,Vd,"in vivo; iv, 20 mg/kg",9.3 L/kg
same,clearance,"in vivo; iv, 20 mg/kg",48 ± 13.4 mL/min/kg
same,half-life,"in vivo; iv, 20 mg/kg",5.45 ± 1.58 h
same,Tmax,in vivo; po,0.8 to 6 h
same,AUC(0-inf),"in vivo; po, 20 mg/kg",2570 ± 568 ng·h/mL
same,AUC(0-t),"in vivo; po, 20 mg/kg",2550 ± 575 ng·h/mL
same,Cmax,"in vivo; po, 20 mg/kg",541 ± 176 ng/mL
same,MRT inf,"in vivo; po, 20 mg/kg",6.46 ± 1.44 h
same,MRT last,"in vivo; po, 20 mg/kg",6.16 ± 1.36 h
same,Tmax,"in vivo; po, 20 mg/kg",0.83 ± 0.58 h
same,bioavailability,"in vivo; po, 20 mg/kg",35.3%
same,half-life,"in vivo; po, 20 mg/kg",4.36 ± 0.46 h
same,AUC(0-inf),"in vivo; po, 50 mg/kg",6210 ± 1650 ng·h/mL
same,AUC(0-t),"in vivo; po, 50 mg/kg",6190 ± 1650 ng·h/mL
same,Cmax,"in vivo; po, 50 mg/kg",678 ± 258 ng/mL
same,MRT inf,"in vivo; po, 50 mg/kg",7.54 ± 0.85 h
same,MRT last,"in vivo; po, 50 mg/kg",7.4 ± 0.75 h
same,Tmax,"in vivo; po, 50 mg/kg",4.17 ± 3.18 h
same,bioavailability,"in vivo; po, 50 mg/kg",34.1%
same,half-life,"in vivo; po, 50 mg/kg",3.58 ± 0.43 h
same,AUC(0-inf),"in vivo; po, 100 mg/kg",14300 ± 2390 ng·h/mL
same,AUC(0-t),"in vivo; po, 100 mg/kg",14300 ± 2400 ng·h/mL
same,Cmax,"in vivo; po, 100 mg/kg",1450 ± 157 ng/mL
same,MRT inf,"in vivo; po, 100 mg/kg",8.4 ± 0.41 h
same,MRT last,"in vivo; po, 100 mg/kg",8.33 ± 0.38 h
same,Tmax,"in vivo; po, 100 mg/kg",6 ± 3 h
same,bioavailability,"in vivo; po, 100 mg/kg",39.2%
same,half-life,"in vivo; po, 100 mg/kg",4.39 ± 1.56 h
same,inhibition of lung metastasis,[2]; 30 mg/kg twice a day,almost complete inhibition
same,inhibition of lung metastasis,[2]; 300 mg/kg once a day,almost complete inhibition
same,"IC50, metastasized 4T1 cells in the lungs",[2]; once a day,40 mg/kg
same,"IC50, metastasized 4T1 cells in the lungs",[2]; twice a day,5 mg/kg
same,tolerability of dosage regimen,"[2]; mouse, in vivo",well tolerated with no signs of overt toxicity
same,number of growing colonies,U2932 cells,decreased the number of growing colonies
same,growth sensitivity,[3],insensitive
